Experimental data reported in publication PMC6938011, “Antiplasmodial profile of selected compounds from Malaria Box: in vitro evaluation, speed of action and drug combination studies” (Malaria Journal, 2019).
pIC50: −log10 of the molar value. Like-named read-outs stand apart in the source and are kept apart here.

Tests used:
P. falciparum [1] = assay: Combination assays, isobologram analysis (FIC50 pairs); assay type: cell-based, Plasmodium falciparum; settings: for Isobologram data, Additive: fraction of FIC50 pairs / Isobologram data, Additive: number of FIC50 pairs / Isobologram data, Antagonistic: number of FIC50 pairs / Isobologram data, Synergic: number of FIC50 pairs / Isobologram data, Antagonistic: fraction of FIC50 pairs: combination with artesunate; for Combination profile with artesunate: isobologram, IC50 equivalent ratios 1:4, 2:3, 1:1, 3:2, 4:1
Procedure: Combinations of anti-malarial candidates with artesunate, an artemisinin derivative, were tested in fixed molar ratios based on the individual IC50 values that were previously determined by the SYBR Green I assay. Traditionally, a line (isobole) of additivity is used to distinguish between additive, synergic, and antagonistic interaction profiles. […] Thus, a systematic consideration of additivity ranges was included in the isobologram analysis, as previously described by Grabovsky and Tallarida. Concentration-response curves of individual compounds were used in the calculation of each pair’s additivity range (area within the upper and lower limits in Figs. 4 and 5). Fractional inhibitory concentration (FIC50) pairs plotted as points inside the additivity range indicate the expected sum of each compound effect, while points above and below the range indicate antagonistic and synergic interactions, respectively. The selected inhibitors were combined with artesunate in the IC50 equivalent ratios of 1:4, 2:3, 1:1, 3:2 and 4:1 for the construction of the isobolograms.

[2] = system: Hepatocarcinoma cells (HepG2); assay: Cytotoxicity evaluation, MTT assay; assay type: cell-based, human; settings: HepG2, 72 h, read-out: IC50^HepG2, MTT Average (confidence interval-95%)
Procedure: (§1) Hepatocarcinoma cells (HepG2) were cultivated in RPMI medium supplemented with 10% (v/v) fetal bovine serum and 0.2% (v/v) penicillin/streptomycin. The antibiotics were added to the medium to eliminate the potential interference of microbial contamination. Cells were cultivated at 37 °C and 5% CO2; the supplemented medium was changed every 2 days.
(§2) For the experimental procedures, cells were trypsinized and transferred to a 96-well plate at 30,000 cells per well and incubated at 37 °C overnight for cell adhesion. Then, serial dilutions of the inhibitor candidates were added to the plate. Cells without any compounds were used as positive growth controls. The plate was incubated at 37 °C and 5% CO2 for 72 h. After incubation, the highest compound concentration to be considered (highest concentration without precipitation) was observed by microscopy. Cytotoxicity was evaluated by two different methods. The first is a colorimetric assay based on metabolic cell activity in the presence of 3-(4,5-dimethylthiazol-2-yl)-2,5-diphenyltetrazolium bromide (MTT). Briefly, mitochondrial enzymes can convert the MTT dye into the purple insoluble compound formazan. To each well, 20 µL MTT at 5 mg/mL was added, followed by incubation at 37 °C for 3 to 5 h. After incubation, the supernatant was removed, and formazan crystals were solubilized in 100 µL DMSO. The absorbance, which is proportional to the number of viable cells, was determined using a SpectraMAX Plus 384 plate reader (Molecular Devices Corp., Sunnyvale, CA) (λ = 570 nm). The second method is based on the uptake of neutral red, a dye that is retained inside the lysosomes of viable cells. To each well, after removal of culture media, 200 µL neutral red medium 40 µg/mL was added, followed by incubation at 37 °C for 3 to 5 h. After incubation, supernatant was dispensed, and 200 µL 0.5% (v/v) formaldehyde in 1% (m/v) CaCl2 was added to remove excess of the dye for 5 min. Supernatant was dispensed, and 100 µL alcohol-acid solution (50% (v/v) ethanol, 1% (v/v) glacial acetic acid) was added, and the plate was stirred until a homogeneous solution was formed. The absorbance was determined using a SpectraMAX Plus 384 plate reader (Molecular Devices Corp., Sunnyvale, CA) (λ = 540 nm). For both methods, the half maximal inhibitory concentration (IC50^HepG2) was determined by non-linear regression analysis of the resulting concentration-response curve using the software Origin 2016 (OriginLab Corporation).

P. falciparum 3D7 strain [3] = assay: SYBR Green I inhibition assay for the asexual stages of P. falciparum; assay type: cell-based, Plasmodium falciparum; settings: 72 h, read-out: IC50^Pf Average (confidence interval-95%)
Procedure: The P. falciparum 3D7 strain was kept in culture in a humidified incubator at 37 °C in RPMI-1640 medium with 25 mM NaHCO3, 25 mM HEPES (pH 7.4), 11 mM D-glucose, 3.67 mM hypoxanthine and 25 µg/mL gentamicin, supplemented with 0.5% (m/v) AlbuMAX II. The culture medium was changed daily, and the parasitaemia was maintained below 10% with 2.5% haematocrit in human erythrocytes.
The parasites were synchronized through sterile 5% (m/v) D-sorbitol treatment over 10 min at 37 °C for the enrichment of ring-stage parasites. The cultures were pelleted by centrifugation at 600×g over 5 min. The parasitaemia was determined by microscope analysis of thin blood smears stained with Giemsa 10% (v/v) after methanol fixation. The initial parasitaemia was calculated from 1000 red blood cells (RBCs), and cultures were diluted to 0.5% parasitaemia and 2% haematocrit by adding the appropriate volumes of erythrocytes and medium. Parasite aliquots of 180 µL were distributed into 96-well plates previously prepared with 20 µL aliquots of a tenfold concentrated compound. Negative and positive control wells corresponding to non-parasitized erythrocytes and parasite cultures in the absence of compounds were set in parallel. The DMSO concentration was maintained below 0.05% (v/v). The plates were incubated for 72 h at 37 °C in a humidified incubator with a gas mixture of 90% N2, 5% O2 and 5% CO2. After incubation, the culture medium was removed, and the cells were resuspended in 100 µL PBS buffer (116 mM NaCl, 10 mM Na2HPO4, 3 mM KH2PO4) and lysed with 100 µL lysis buffer (20 mM Tris base, 5 mM EDTA, 0.0008% (v/v) Triton X-100, 0.008% (m/v) saponin, pH 8.0) containing 0.002% (v/v) SYBR Green I. Plates were incubated at room temperature for 30 min, and the fluorescence corresponding to the parasitic density was determined using a SpectraMAX Gemini EM plate reader (Molecular Devices Corp., Sunnyvale, CA) (excitation at 485 nm, emission at 535 nm). The half maximal inhibitory concentration (IC50^Pf) was determined by non-linear regression analysis of the resulting concentration-response curve using the software Origin 2016 (OriginLab Corporation).

[4] = system: Hepatocarcinoma cells (HepG2); assay: Cytotoxicity evaluation, neutral red assay; assay type: cell-based, human; settings: HepG2, 72 h, read-out: IC50^HepG2, NR Average (confidence interval-95%)
Procedure: as §1, §2

P. falciparum 3D7 strain [5] = system: P. falciparum 3D7 strain; design: method as in PMID 23798988; settings: reported potency of Malaria Box compounds ref 13, read-out: Reported IC50^Pf; cited from earlier work
P. falciparum [6] = settings: in vitro ref 34; cited from earlier work
P. berghei NK65 strain = assay: In vivo suppressive parasite growth test against Plasmodium berghei; design: species or system Swiss outbred mice; settings: 20 mg/kg, positive control, P. berghei-infected mice
Procedure: A suppressive parasite growth test was performed in mice infected with P. berghei NK65 strain (originally received from the New York University Medical School), as described previously, with some modifications. Briefly, adult Swiss outbred mice (20 ± 2 g weight) were intraperitoneally inoculated with 1 × 10^5 red blood cells infected with P. berghei. The infected mice were maintained together for at least 2 h and then randomized into groups of 5 animals per cage, which were subsequently administered 50 mg/kg of each compound diluted in 3% (v/v) DMSO by oral gavage daily for 3 days. Two control groups were used in parallel: one was treated with CQ (20 mg/kg) and the other was treated with the vehicle. Blood smears from mouse tails were prepared on days 5 and 7 post-infection and then fixed with methanol, stained with Giemsa 10% (v/v), and examined under the microscope.

[7] = system: asexual intraerythrocytic stages of P. falciparum; assay: Speed of action studies (microscopy of thin blood smears); assay type: cell-based, Plasmodium falciparum; settings: ring-stage parasites; for Parasite morphology during incubation: compound at tenfold the IC50, microscopy up to 36 h; for Speed of action: compound at tenfold the IC50, observed 0-36 h
Procedure: Parasites in thin blood smears were observed by microscopy after 0, 8, 16, 24 and 36 h of incubation.

SMILES | Isobologram data, Additive: fraction of FIC50 pairs (P. falciparum [1]) [%] | Isobologram data, Additive: number of FIC50 pairs (P. falciparum [1]) | Isobologram data, Antagonistic: number of FIC50 pairs (P. falciparum [1]) | Isobologram data, Synergic: number of FIC50 pairs (P. falciparum [1]) | Combination profile with artesunate (P. falciparum [1]) | pIC50 (P. falciparum 3D7 strain [5]) | Isobologram data, Antagonistic: fraction of FIC50 pairs (P. falciparum [1]) [%] | pIC50 [2] | pIC50 (P. falciparum 3D7 strain [3]) | pIC50 [4] | Parasite morphology during incubation [7] | Speed of action [7] | also measured
C[C@H]1[C@H](OC(=O)CCC(=O)O)O[C@@H]2O[C@@]3(C)CC[C@H]4[C@H](C)CC[C@@H]1[C@@]24OO3 [Artesunate, reference compound] | 100 | 15 | 0 | 0 | Additivity | 8.10 | – | – | – | – | – | – | Combination profile with artesunate (P. falciparum [1]; listed as artesunate): additive; pIC50 ([2]; Homo sapiens): 3.96; pIC50 (P. falciparum 3D7 strain [3]; Plasmodium falciparum): 7.77; pIC50 ([4]; Homo sapiens): 3.96; Speed of action (literature) (P. falciparum [6]): fast
CCN(CC)CCCC(C)Nc1ccnc2cc(Cl)ccc12 (centres unmarked) [Chloroquine, reference compound] | – | – | – | – | – | – | – | – | – | – | – | – | % of reduction of parasitaemia, day 5 after infection (P. berghei NK65 strain): 100%; % of reduction of parasitaemia, day 7 after infection (P. berghei NK65 strain): 100%
CN1CCN(c2ccc(Nc3c4ccccc4nc4ccccc34)cc2)CC1 [Compound 1] | 8 | 1 | 11 | 0 | antagonistic | 6.85 | 92 | 5.49 | 7.13 | 5.48 | pyknotic nuclei formation | Fast | Combination profile with artesunate (P. falciparum [1]; listed as 01): Antagonism
Brc1ccc(Nc2nc3ccccc3nc2Nc2ccc(Br)cc2)cc1 [Compound 3] | 38 | 5 | 8 | 0 | – | 5.97 | 62 | 5.29 | 6.47 | < 5.20 | punctual shapes after 16 h | Fast | Combination profile with artesunate (P. falciparum [1]; listed as 03): Antagonism
